Experimental data taken from US7060699B2, “Aryl and heteroaryl diazabicycloalkanes, their preparation and use” (priority 2000, dated 2006).
Read-outs that look alike come from different tables or passages of the source.

Key:
[1] = target: T1, serotonin transporter (Rattus norvegicus, UniProt P31652); test: In vitro inhibition of 3H-5-hydroxytryptamine (3H-5-HT, serotonin) uptake in cortical synaptosomes; type: biochemical
T1 construct: Cerebral cortices from male Wistar rats (150–200 g) are homogenized; from tissue; host or cells: rat cerebral cortex synaptosomes (P2 pellet)
T1 sequence (P31652 whole entry): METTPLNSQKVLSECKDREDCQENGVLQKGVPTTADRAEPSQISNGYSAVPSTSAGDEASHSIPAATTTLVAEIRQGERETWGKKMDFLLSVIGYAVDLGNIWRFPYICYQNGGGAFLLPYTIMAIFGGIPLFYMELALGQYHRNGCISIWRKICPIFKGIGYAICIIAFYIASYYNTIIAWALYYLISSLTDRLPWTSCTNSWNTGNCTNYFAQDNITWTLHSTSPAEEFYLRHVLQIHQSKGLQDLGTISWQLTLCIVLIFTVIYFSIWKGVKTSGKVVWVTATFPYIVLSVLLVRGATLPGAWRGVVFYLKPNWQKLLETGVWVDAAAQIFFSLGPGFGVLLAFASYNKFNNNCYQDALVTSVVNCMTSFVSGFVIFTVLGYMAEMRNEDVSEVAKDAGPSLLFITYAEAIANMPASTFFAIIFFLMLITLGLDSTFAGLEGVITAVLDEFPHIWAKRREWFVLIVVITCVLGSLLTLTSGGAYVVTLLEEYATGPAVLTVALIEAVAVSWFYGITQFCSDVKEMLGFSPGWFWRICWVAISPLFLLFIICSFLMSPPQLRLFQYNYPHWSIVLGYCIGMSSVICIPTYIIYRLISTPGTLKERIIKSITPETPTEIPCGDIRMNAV
Experimental: In Vitro Inhibition of ^3H-5-hydroxytryptamine (^3H-5-HT, Serotonin) Uptake in Cortical Synaptosomes
Serotonin transporters/uptake sites on nerve terminals presumably function to terminate neuronal signaling by removing serotonin from the synaptic cleft. The activity of the serotonin transporter integral protein can be measured in vitro by synaptosomal uptake of ^3H-5-hydroxytryptamine.
Preparations are performed at 0–4° C. unless otherwise indicated. Cerebral cortices from male Wistar rats (150–200 g) are homogenized for 5–10 sec in 100 volumes of ice-cold 0.32M sucrose containing 1 mM pargyline using a motor driven teflon pestle in a glass homogenizing vessel. Monoamine oxidase activity will be inhibited in the presence of pargyline. The homogenate is centrifuged at 1000×g for 10 min. The resulting supernatant is then centrifuged at 27,000×g for 50 min and the supernatant is discarded.
Aliquots of 4.0 ml tissue suspension are added to 100 µl of test solution and 100 μl of ^3H-5-HT (1 nM, final concentration), mixed and incubated for 30 min at 37° C. Non-specific uptake is determined using citalopram (1 μM, final concentration). After incubation the samples are poured directly onto Whatman GF/C glass fibre filters under suction. The filters are then washed three times with 5 ml of ice-cold 0.9% (w/v) NaCl solution. The amount of radioactivity on the filters is determined by conventional liquid scintillation counting. Specific uptake is calculated as the difference between total uptake and non-specific uptake.
where C0 is specific binding in control assays and Cx is the specific binding in the test assay (the calculations assume normal mass-action kinetics).

[2] = target: nAChR formed by the α7 subunit isoform (Rattus norvegicus, UniProt Q05941); test: biochemical; type: binding
Chain of nAChR formed by the α7 subunit isoform (Q05941 23-502): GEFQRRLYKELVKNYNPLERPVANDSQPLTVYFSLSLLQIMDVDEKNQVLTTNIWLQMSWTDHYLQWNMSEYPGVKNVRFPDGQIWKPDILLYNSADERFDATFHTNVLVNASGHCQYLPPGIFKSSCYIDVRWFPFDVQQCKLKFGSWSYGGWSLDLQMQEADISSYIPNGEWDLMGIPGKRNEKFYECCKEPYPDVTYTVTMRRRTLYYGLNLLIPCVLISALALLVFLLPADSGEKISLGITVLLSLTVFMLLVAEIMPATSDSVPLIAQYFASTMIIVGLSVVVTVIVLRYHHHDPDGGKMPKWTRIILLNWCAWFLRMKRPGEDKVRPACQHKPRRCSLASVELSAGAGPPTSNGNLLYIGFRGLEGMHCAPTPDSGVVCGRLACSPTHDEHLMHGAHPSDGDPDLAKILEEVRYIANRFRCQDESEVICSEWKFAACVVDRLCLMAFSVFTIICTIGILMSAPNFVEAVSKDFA

[3] = target: nAChR comprised of α4 and β2 subunits (Rattus norvegicus, UniProt P09483+P12390); test: In vitro inhibition of 3H-cytisine binding
Chain of nAChR comprised of α4 and β2 subunits (P09483 31-630): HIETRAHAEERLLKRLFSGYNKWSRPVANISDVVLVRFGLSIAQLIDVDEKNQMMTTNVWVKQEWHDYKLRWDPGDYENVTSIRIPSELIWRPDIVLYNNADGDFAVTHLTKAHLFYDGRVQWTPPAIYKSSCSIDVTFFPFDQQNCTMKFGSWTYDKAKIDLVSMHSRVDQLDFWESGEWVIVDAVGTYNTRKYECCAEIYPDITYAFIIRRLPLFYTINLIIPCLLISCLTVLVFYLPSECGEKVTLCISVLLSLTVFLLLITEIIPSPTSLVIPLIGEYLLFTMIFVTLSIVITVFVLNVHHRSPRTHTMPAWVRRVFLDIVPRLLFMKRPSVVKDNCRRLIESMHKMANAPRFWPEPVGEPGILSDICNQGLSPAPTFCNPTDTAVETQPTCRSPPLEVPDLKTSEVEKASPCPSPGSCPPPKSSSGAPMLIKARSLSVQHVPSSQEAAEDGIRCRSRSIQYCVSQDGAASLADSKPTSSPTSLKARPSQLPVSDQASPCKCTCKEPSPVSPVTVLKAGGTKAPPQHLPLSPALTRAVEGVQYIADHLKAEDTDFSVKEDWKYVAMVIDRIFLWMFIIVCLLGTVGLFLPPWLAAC
Chain of nAChR comprised of α4 and β2 subunits (P12390 25-500): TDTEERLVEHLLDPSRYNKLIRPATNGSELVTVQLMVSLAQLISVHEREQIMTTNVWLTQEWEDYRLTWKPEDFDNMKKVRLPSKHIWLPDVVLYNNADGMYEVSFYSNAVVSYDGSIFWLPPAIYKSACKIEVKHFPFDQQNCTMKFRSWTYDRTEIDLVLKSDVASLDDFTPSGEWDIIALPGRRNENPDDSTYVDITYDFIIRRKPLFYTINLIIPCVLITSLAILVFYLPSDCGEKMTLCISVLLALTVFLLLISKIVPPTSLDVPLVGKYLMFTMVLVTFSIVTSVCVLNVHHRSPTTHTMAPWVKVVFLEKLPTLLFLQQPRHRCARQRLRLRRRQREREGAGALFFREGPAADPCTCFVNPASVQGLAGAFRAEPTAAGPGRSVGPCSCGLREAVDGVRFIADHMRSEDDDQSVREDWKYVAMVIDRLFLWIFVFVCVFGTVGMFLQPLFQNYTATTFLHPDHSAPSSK

[4] = cerebral cortex homogenate from male Wistar rats, 3H-cytisine 1 nM, 90 min at 2° C., read-out: 3H-cytisine binding IC50

Work on `CN1C2CCC1CN(c1ccc(Cl)c(Cl)c1)CC2` (racemic) [Compound A1, (±) 3-(3,4-Dichlorophenyl)-9-methyl-3,9-diazabicyclo-[4.2.1]-nonane] yielded an IC50 [1] of 32 nM.

For `CN1C2CCC1CN(c1ccc3cc([N+](=O)[O-])ccc3n1)CC2` (racemic) [Compound C3, (±) 3-(6-Nitro-2-quinolinyl)-9-methyl-3,9-diazabicyclo-[4.2.1]-nonane], the IC50 [1] was 3.7 nM.

`CN1C2CCC1CN(c1ccc3ccccc3n1)CC2` (racemic) [Compound 2, (±) 3-(2-Quinolinyl)-9-methyl-3,9-diazabicyclo-[4.2.1]-nonane] gave an IC50 [1] of 13 nM.

In the case of `CN1CCC2CCC(C1)N2c1ccc(-c2ccccc2)nn1` (racemic) [Compound F10, (±) 3-Methyl-9-(6-phenyl-3-pyridazinyl)-3,9-diazabicyclo-[4.2.1]-nonane], the IC50 [2] is reported as 800 nM and the IC50 [3, 4] is reported as 27000 nM.

In the case of `Cc1ccccc1-c1ccc(N2CCC3CCC(C2)N3C)cn1` (racemic) [Compound F1, (±) 3-[6-(2-Toluyl)-3-pyridyl]-9-methyl-3,9-diazabicyclo-[4.2.1]-nonane], the IC50 [2] is reported as 5500 nM and the IC50 [3] is reported as 99 nM.

For `CN1C2CCC1CN(c1ccc(-c3ccsc3)nc1)CC2` (racemic) [Compound F5, (±) 3-[6-(3-Thienyl)-3-pyridyl]-9-methyl-3,9-diazabicyclo-[4.2.1]-nonane], the IC50 [2] was 280 nM and the IC50 [3, 4] was 1500 nM.

`CN1C2CCC1CN(c1ccc3ccccc3c1)CC2` (racemic) [Compound 1, (±) 3-(2-Naphthalyl)-9-methyl-3,9-diazabicyclo-[4.2.1]-nonane] showed an IC50 [1] of 40 nM.

`CN1C2CCC1CN(c1cncc(OCCOc3cncc(N4CCC5CCC(C4)N5C)c3)c1)CC2` (racemic) [Compound B7, (±) O,O′-bis-[5-(9-Methyl-3,9-diazabicyclo-[4.2.1]-nonan-3-yl)-3-pyridyl]-ethyleneglycol] showed an IC50 [2] of over 10000 nM and an IC50 [3] of 13 nM.

Compound `CN1C2CCC1CN(c1ccc(-c3ccccc3)nn1)CC2` (racemic) [Compound C2, (±) 3-(6-Phenyl-3-pyridazinyl)-9-methyl-3,9-diazabicyclo-[4.2.1]-nonane] has an IC50 [2] of 410 nM and an IC50 [3, 4] of over 10000 nM.

`c1ccc2ncc(N3CCC4CCC(C3)N4)cc2c1` (racemic) [Compound B5, (±) 3-(3-Quinolinyl)-9-H-3,9-diazabicyclo-[4.2.1]-nonane] was tested, and the IC50 [1] was 49 nM.
